Source: EP1056460B1, “PHARMACEUTICAL PREPARATIONS FOR SELECTIVELY SUPPLEMENTING OESTROGEN DEFICIENCY IN THE CENTRAL NERVOUS SYSTEM” (priority 1998, dated 1999)

Tests used:
Uterus [1] = experiment: Uterus weight after 14 days of daily subcutaneous treatment (cognition experiment); type: in vivo, Wistar-Ratten; conditions: for Uterusgewichte (x ± SEM): after 14 days of daily s.c. treatment: 17b-Estradiol 1 µg, 17a-Estradiol 100 µg, prototype 30 µg, n = 8-10, OVX 53 ± 2
From the text: (§1) Eine Korrelation zwischen Serum-Estrogenspiegel und kognitiver Leistung wurde auch im Tierversuchsmodell nachgewiesen (Kondo Y, Suzuki K, Sakuma Y, Estrogen aleviates cognitive dysfunction following transient brain ischemia in ovariectomized gerbils, Neurosci Lett 238: 45-48, 1997). […] Die gesamte Behandlungsdauer war 14 Tage. Am 5. und 6. Behandlungstag wurden Trainingssitzungen zum Erlernen eines konditionierten Escape-Verhaltens nach einer etablierten Methode (Diaz-Veliz G et al., Influence of the estrous cycle, ovariectomy and estradiol replacement upon the acquisition of conditioned avoidance responses in rats, Physiol Behav 46: 397-401, 1989) durchgeführt. Jedes Tier wurde in einer Sitzung 50 Mal der Kombination aus einem unbedingten (elektrische Reizung) und zwei konditionierenden Stimuli (Licht- und Schall-Signal) exponiert. Am 7. Behandlungstag wurde die Retention des erlernten Verhaltensmusters getestet. Nach einer 6-tägigen Unterbrechung der Lernsitzungen, wurde am 14. Behandlungstag die Extinktion des erlernten konditionierten Verhaltens ermittelt. Die Anzahl der korrekten Verhaltensreaktionen (Escape in das "sichere" Abteil des Apparats innerhalb von drei Sekunden nach Präsentation der konditionierenden Signale) aus 50 aufeinanderfolgenden Expositionen wurde als Kriterium für die Bewertung der Retention bzw. Extinktion des erlernten Verhaltens verwendet.

bcl-2 = bcl-2 transcripts in the dentate gyrus of the hippocampus by in-situ hybridisation after chronic treatment in vivo; set-up: species or system Wistar-Ratten; conditions: ovariectomised rats, 0,01, 0,1 and 1 µg daily s.c. for 7 days; effect of the prototype identical to equal doses of 17b-Estradiol
From the text: Das Untersuchungsmaterial stammte von Tieren, die im unter Beispiel 3 beschriebenen Experiment behandelt wurden. […] Bcl-2-Transkripte wurden in Hirnschnitten durch in-situ-Hybridisierung mit einer spezifischen Oligonukleotid-Sonde (Clark RSB et al., Apoptosis-suppressor gene bcl-2 expression after traumatic brain injury in rats, J Neurosci 17: 9172-9182, 1997) dargestellt, und nach der im Beispiel 3 beschriebenen Methode densitometrisch quantifiziert.

Uterus [2] = experiment: Uterus wet weight after chronic subcutaneous application (osmotic minipumps, 7 days) in ovariectomised rats; type: in vivo, Wistar-Ratten
From the text: Geschlechtsreife (drei Monate alt, Gewicht 250±30 g) weibliche Wistar-Ratten (Tierzucht Schönwalde GmbH, Deutschland) wurden unter Ketamin-Narkose ovarektomiert. […] Am 7. Behandlungstag wurden die Tiere getötet und die Uterus-Feuchtgewichte (bezogen auf 100 g Körpergewicht) ermittelt.
Geschlechtsreife (drei Monate alt, Gewicht 250±30 g) weibliche Wistar-Ratten (Tierzucht Schönwalde GmbH, Deutschland) wurden unter Ketamin-Narkose ovarektomiert. […] Unmittelbar nach der Tötung der Tiere, wurden die Uterus-Feuchtgewichte (bezogen auf 100 g Körpergewicht) ermittelt. Die Messenger-Ribonukleinsäure (mRNA), die die Biosynthese von Oxytozin codiert, wurde durch in-situ-Hybridisierung mit einer spezifischen radioaktiv-markierten Oligodeoxynukleotid-Sonde nach einer etablierten Methode (Fischer D et al, Lactation as a model of naturally reversible hypercorticalism: plasticity in the mechanism governing hypothalamo-pituitary-adrenal activity in the rat, J Clin Invest 96: 1208-1215, 1995), 1995) im hypothalamischen Nucleus paraventricularis (PVN) dargestellt. Behandlungsbedingte Veränderungen in der Transkription des Oxytocin-Gens wurden durch densitometrische Messungen der spezifischen Hybridisierungssignale innerhalb der definierten anatomischen Stukturen quantifiziert.
(§2) Jeder Punkt stellt x ± SEM von 5-7 Einzelbestimmungen.

Endometriums = experiment: Computer-aided measurement of endometrium thickness in uterus preparations; type: in vivo, Ratten; conditions: ovariectomised rats, 1 µg daily s.c. for 7 days
Oxytozin-Rezeptoren = experiment: Density of oxytocin receptors in brain and myometrium by 125I-OVTA autoradiography after 7 days of treatment; type: in vivo, Ratten; conditions: 1 µg daily s.c. for 7 days
From the text: Jede Säule repräsentiert x ± SEM von 4-5 Einzelbestimmungen.

kognitive Leistung = experiment: Conditioned escape behaviour (retention and extinction) in ovariectomised rats after chronic treatment; type: in vivo, Wistar-Ratten; conditions: 30 µg daily s.c., retention tested on day 7
From the text: as §1

[3] = tested on: Alpha-Isoform des Estrogenrezeptors (ERa); experiment: Activation of transcription of an ERa-dependent luciferase reporter gene in MCF-7/2A cells; type: cell-based; conditions: EREwtcLUC reporter, 10^-11 to 10^-8 M, 48 h, fold lower than 17b-Estradiol
From the text: Brustkrebszellen MCF-7/2A, die die Alpha-Isoform des Estrogenrezeptors (ERa) exprimieren, wurden mit dem Reporter-Plasmid EREwtcLUC stabil transfiziert. Der Reporter enthält den Estrogen-Response Element (ERE) von Vitellogenin, einen Thymidinkinase-Promotor und das Luciferase-codierende Gen von Photinus pyralis. […] Die Zellen wurden lysiert und die Transkription des Luciferase-Reportergens wurde durch Bestimmung der Luciferase-Aktivität mit einem spezifischen Testansatz (Serva/Promega, Deutschland) ermittelt.
Die Figur stellt die Mittelwerte von zwei unabhängigen Versuchen dar.

[4] = Serum concentration of 17b-Estradiol after 7 days of subcutaneous treatment (biotransformation); type: in vivo, Ratten; conditions: ovariectomised rats, daily s.c. for 7 days: 17a-Estradiol 100 µg, prototype 30 µg, 17b-Estradiol 1 µg; placebo below detection limit
From the text: Sternzeichen bezeichnen signifikante Differenzen im Vergleich zu den Werten, die bei Placebo-behandelten Tieren gemessen wurden; die Letzteren waren unterhalb der Nachweisgrenze der Methode; jede Behandlungsgruppe bestand aus 7 Tieren.

Oxytocin-Gens = experiment: Oxytocin mRNA in the hypothalamic paraventricular nucleus by in-situ hybridisation after chronic treatment in vivo; set-up: species or system Wistar-Ratten; conditions: ovariectomised rats, 0,01, 0,1 and 1 µg daily s.c. for 7 days; effect of the prototype very similar to 17b-Estradiol
From the text: Geschlechtsreife (drei Monate alt, Gewicht 250±30 g) weibliche Wistar-Ratten (Tierzucht Schönwalde GmbH, Deutschland) wurden unter Ketamin-Narkose ovarektomiert. […] Unmittelbar nach der Tötung der Tiere, wurden die Uterus-Feuchtgewichte (bezogen auf 100 g Körpergewicht) ermittelt. […] Behandlungsbedingte Veränderungen in der Transkription des Oxytocin-Gens wurden durch densitometrische Messungen der spezifischen Hybridisierungssignale innerhalb der definierten anatomischen Stukturen quantifiziert.
as §2

| SMILES | Uterusgewichte (x ± SEM) (Uterus [1]) | uterotrope Wirkung im Vergleich mit 17b-Estradiol in einer täglichen Dosis von 1 µg (Uterus [1]; prototype 30 µg daily s.c., 14 days) | Expression von bcl-2 im Gyrus dentatus (bcl-2) | Wirksamkeit im weiblichen Genitaltrakt im Vergleich mit 17a-Estradiol (Uterus [2]; comparison in words) | Wirksamkeit im weiblichen Genitaltrakt, geringer als diese von 17b-Estradiol (Uterus [2]; fold lower than 17b-Estradiol, from uterotropic daily doses) | Uterus-Vergrößerung (Uterus [2]; ovariectomised rats, 0,01, 0,1 and 1 µg daily s.c. for 7 days (Example 3)) | Tagesdosen für signifikante Vergrößerung des Uterus (uterotroper Effekt) (Uterus [2]; ovariectomised rats, s.c. osmotic minipumps, 7 days, uterus wet weight per 100 g body weight) | Stärke des Endometriums (endometriale Proliferation) (Endometriums) | Dichte von Oxytozin-Rezeptoren in allen untersuchten Hirnstrukturen (Oxytozin-Rezeptoren; VMN and BNST, ovariectomised rats, 50 pM 125I-OVTA) | Dichte von Oxytozin-Rezeptoren im VMN im Vergleich mit 17b-Estradiol (Oxytozin-Rezeptoren; VMN) | Induktion von Oxytozin-Bindungsstellen im Myometrium (Oxytozin-Rezeptoren; ovariectomised rats) | Retention des erlernten Verhaltensmusters (kognitive Leistung) | Effizienz (Transkription des Reporters), geringer als diese von 17b-Estradiol [3] | Serumkonzentrationen von 17b-Estradiol [4] | Transkription des Oxytozin-Gens im PVN (Oxytocin-Gens) |
| --- | --- | --- | --- | --- | --- | --- | --- | --- | --- | --- | --- | --- | --- | --- | --- |
| C[C@]12CCC3=C(CCc4cc(O)ccc43)[C@@]13C[C@H]3C[C@H]2O [15βH,3'H-Cycloprop[14,15]-estra-1,3,5(10),8-tetraen-3,17α-diol] | 108 ± 4 mg/100g KG | signifikant geringer | dosisabhängigen Stimulation | vergleichbar mit derjenigen von 17a-Estradiol | ~1000 -fach | keiner Uterus-Vergrößerung | 30 µg | nicht beeinflussen | signifikanten Anstieg | schwächeren Effekt als 17b-Estradiol | signifikant geringere Wirkung | estrogen-ähnlichen stimulierenden Effekt | 10 -fach | keinen Anstieg | dosisabhängig stimuliert |
| C[C@]12CC[C@@H]3c4ccc(O)cc4CC[C@H]3[C@@H]1CC[C@H]2O [17a-Estradiol] | – | – | – | – | – | – | – | nicht beeinflussen | – | – | signifikant geringere Wirkung | – | – | meßbare Konzentrationen | – |
| C[C@]12CC[C@@H]3c4ccc(O)cc4CC[C@H]3[C@@H]1CC[C@@H]2O [17b-Estradiol] | 187 ± 9 mg/100g KG | – | – | – | – | – | – | signifikante endometriale Proliferation | – | – | – | – | – | meßbare Konzentrationen | – |
